Measurements: the supplement of paper PMC4862054

Experiments:
Details in all cases: incubation time: 72 h
MDA-MB-231 [1] = experiment: drug sensitivity score (DSS), CellTiter-Glo (DSS (AUC-based score)); higher = stronger drug effect (viability inhibition or cytotoxicity); extreme values may be limits of the assay
How it was run: (§1)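 The area under the fitted dose-response curve was used to calculate the drug sensitivity score. Cells from breast cancer lines were incubated for 72 h in 384-well plates with compound at 5 concentrations spaced 10-fold over a 10,000-fold range specific to each compound. Plates were read for CellTox Green and then CellTiter-Glo, and normalised to 0.1 % DMSO and a positive kill control.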

CAL-148 [2] = experiment: as above
How it was run: as §1

CAL-85-1 [3] = experiment: as above
How it was run: as §1

MDA-MB-453 [4] = experiment: as above
How it was run: as §1

CAL-120 = experiment: as above
How it was run: as §1

CAL-51 [5] = experiment: as above
How it was run: as §1

DU-4475 [6] = experiment: as above
How it was run: as §1

HCC1599 = experiment: as above
How it was run: as §1

HCC1143 = experiment: normalised viability (% of control), CellTiter-Blue; higher = more viable cells (about 100 = DMSO control)
How it was run: (§2)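 384-well plates were pre-loaded with compound in 5 µl medium before 20 µl of breast cancer cell suspension was seeded. Following 72 h incubation, 2.5 µl CellTiter-Blue reagent was added for 2 h at 37 °C. Fluorescence was read at 560/590 nm and plates were normalised to vehicle (100) and a positive kill control (0), checked by Z'-factor. Normalised viability is reported at a single listed concentration of the series.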

MDA-MB-231 [7] = experiment: as above
How it was run: as §2

MDA-MB-436 = experiment: as above
How it was run: as §2

CAL-148 [8] = experiment: as above
How it was run: as §2

CAL-85-1 [9] = experiment: as above
How it was run: as §2

MDA-MB-453 [10] = experiment: as above
How it was run: as §2

Hs578T = experiment: as above
How it was run: as §2

MDA-MB-468 = experiment: as above
How it was run: as §2

BT-549 = experiment: as above
How it was run: as §2

BT-474 = experiment: as above
How it was run: as §2

SK-BR-3 = experiment: as above
How it was run: as §2

CAL-51 [11] = experiment: as above
How it was run: as §2

HCC1937 = experiment: as above
How it was run: as §2

DU-4475 [12] = experiment: as above
How it was run: as §2

HDQ-P1 = experiment: as above
How it was run: as §2

MFM-223 = experiment: as above
How it was run: as §2

Nc1ccccc1NC(=O)c1ccc(CNC(=O)OCc2cccnc2)cc1 [Entinostat]
Details	drug sensitivity score
CAL-51 [5]	12.8
CAL-85-1 [3]	1.24
CAL-120	0
CAL-148 [2]	4.83
DU-4475 [6]	4.63
HCC1599	4.34
MDA-MB-231 [1]	2.59
MDA-MB-453 [4]	6.08

normalised viability [%]
Details	3 nM	10 nM	30 nM	100 nM	1000 nM	10000 nM
BT-474	–	108	–	–	97	31.9
BT-549	–	110	–	–	102	61.4
CAL-51 [11]	116	–	106	109	–	–
CAL-85-1 [9]	98.1	–	100	99.6	–	–
CAL-148 [8]	85.4	–	84.9	86.7	–	–
DU-4475 [12]	117	–	117	105	–	–
HCC1143	–	84.5	–	–	89.6	31.2
HCC1937	–	124	–	–	82.4	56.8
HDQ-P1	103	–	110	102	–	–
Hs578T	–	100	–	–	97.6	25
MDA-MB-231 [7]	–	99.2	–	–	78.7	37.7
MDA-MB-436	–	115	–	–	96	52.8
MDA-MB-453 [10]	132	–	130	110	–	–
MDA-MB-468	–	102	–	–	79.8	22.9
MFM-223	–	110	–	–	93.6	19.9
SK-BR-3	–	108	–	–	45.2	2.8

Nc1nc(F)nc2c1ncn2[C@@H]1O[C@H](CO)[C@@H](O)[C@@H]1O [Fludarabine]
Details	drug sensitivity score
CAL-51 [5]	0
CAL-85-1 [3]	0.486
CAL-120	0.352
CAL-148 [2]	0
DU-4475 [6]	0
HCC1599	0
MDA-MB-231 [1]	0
MDA-MB-453 [4]	0

normalised viability [%]
Details	3 nM	10 nM	30 nM	100 nM	1000 nM	10000 nM
BT-474	–	94	–	–	97.4	103
BT-549	–	85.1	–	–	97.1	81.5
CAL-51 [11]	100	–	101	91.9	–	–
CAL-85-1 [9]	88	–	87.2	92.8	–	–
CAL-148 [8]	71	–	82.6	87.7	–	–
DU-4475 [12]	91.1	–	93.2	96.7	–	–
HCC1143	–	75.8	–	–	80	55.9
HCC1937	–	97.5	–	–	84.8	54.5
HDQ-P1	107	–	91	96.4	–	–
Hs578T	–	112	–	–	99.2	87.2
MDA-MB-231 [7]	–	90.9	–	–	89.9	81.1
MDA-MB-436	–	89	–	–	81.2	78.4
MDA-MB-453 [10]	113	–	112	103	–	–
MDA-MB-468	–	98.8	–	–	112	98.9
MFM-223	–	101	–	–	106	100
SK-BR-3	–	98.6	–	–	93.3	77.8

O=C(Cc1ccc(-c2ccc(OCCN3CCOCC3)cc2)cn1)NCc1ccccc1 [KX2-391]
Details	drug sensitivity score
CAL-51 [5]	25.9
CAL-85-1 [3]	18.5
CAL-120	11
CAL-148 [2]	16.9
DU-4475 [6]	15.2
HCC1599	23.8
MDA-MB-231 [1]	14.1
MDA-MB-453 [4]	9

normalised viability [%]
Details	3 nM	10 nM	30 nM	100 nM	1000 nM	10000 nM
BT-474	–	114	–	–	56	66.7
BT-549	–	95.5	–	–	17.5	20.7
CAL-51 [11]	114	–	105	20	–	–
CAL-85-1 [9]	92.5	–	65.1	34.2	–	–
CAL-148 [8]	94.8	–	91.3	16.8	–	–
DU-4475 [12]	83.8	–	80.5	16.1	–	–
HCC1143	–	79.3	–	–	32.3	39.5
HCC1937	–	108	–	–	16.9	15.9
HDQ-P1	112	–	97.7	43.2	–	–
Hs578T	–	94.4	–	–	15.4	20.5
MDA-MB-231 [7]	–	98.1	–	–	18.1	16.3
MDA-MB-436	–	98.3	–	–	56.6	39.2
MDA-MB-453 [10]	114	–	72.6	25	–	–
MDA-MB-468	–	104	–	–	38.9	51.8
MFM-223	–	91.2	–	–	40.7	26.9
SK-BR-3	–	102	–	–	19.9	19.1

N#Cc1ccc(C(c2ccc(C#N)cc2)n2cncn2)cc1 [Letrozole]
Details	drug sensitivity score
CAL-51 [5]	0
CAL-85-1 [3]	0
CAL-120	0
CAL-148 [2]	0
DU-4475 [6]	0
HCC1599	0
MDA-MB-231 [1]	0
MDA-MB-453 [4]	0

normalised viability [%]
Details	3 nM	10 nM	30 nM	100 nM	1000 nM	10000 nM
BT-474	–	105	–	–	109	109
BT-549	–	83.5	–	–	84	90.5
CAL-51 [11]	115	–	107	103	–	–
CAL-85-1 [9]	86.9	–	85	87.1	–	–
CAL-148 [8]	93.8	–	93	94.8	–	–
DU-4475 [12]	94.6	–	81.4	82	–	–
HCC1143	–	85.4	–	–	90.7	78.4
HCC1937	–	81.8	–	–	82.6	82
HDQ-P1	90.8	–	79.5	84.5	–	–
Hs578T	–	91.8	–	–	91	98.9
MDA-MB-231 [7]	–	86.3	–	–	87.8	95.5
MDA-MB-436	–	113	–	–	96.1	105
MDA-MB-453 [10]	105	–	76.8	93.1	–	–
MDA-MB-468	–	101	–	–	115	92.7
MFM-223	–	58.8	–	–	70.5	49.2
SK-BR-3	–	79.4	–	–	103	85.2
